These results are taken from patent US12589104B2, “Thiosaccharides for use in treating coronavirus infection” (priority 2020, dated 2026).

Data set [1] has as its target T1, SARS-CoV-2 RBD^original binding to ACE2 (Severe acute respiratory syndrome coronavirus 2, UniProt P0DTC2).
T1 construct: ACRO Biosystems); purchased ACRO Biosystems
The following applies: for binding of RBD^original to ACE2 at one and two hours post exposure and wash: 5 mM drug for 1 hour, washed, ACE2 added after 60 or 120 minutes; for inhibition of binding of RBD^original to ACE2: RBD exposed to drug for 60 minutes, 0 to 20 mM.

Data set [2] has as its system SARS-CoV-2, isolate USA-WA1/2020. The data set is classed as cell-based.
Data set [3] relates to SARS CoV2 (isolate USA-WA1/2020). On the set-up: species or system Syrian hamsters (Mesocricetus auratus). The following applies: hamster, in vivo.
The conditions of data set [4]: cited from earlier work.
The subject of data set [5] is SARS-2-S pseudovirus. The data set is classed as cell-based, SARS-CoV-2.
Data set [6] deals with T2, RBD of SARS-2-S binding to ACE2 (Severe acute respiratory syndrome coronavirus 2, UniProt P0DTC2).
T2 construct: Recombinantly expressed RBD of SARS-2-S was first immobilized to a surface
On the set-up: species or system SARS-CoV-2.

The subject of data set [7] is VSV pseudotype bearing the SARS-2-S protein (VSV-S). The data set is classed as cell-based, SARS-CoV-2.
Data set [8] is classed as physicochemical. Conditions: 11 mg/mL in vehicle, Aerogen Solo vibrating mesh nebulizer.

Counter-ions that a name gives are not always drawn.

Take `NCCS` [Cysteamine]: in data set [1], the “binding of RBD^original to ACE2 at one and two hours post exposure and wash” value was “binding inhibition was retained for two hours after drug removal”; the “inhibition of binding of RBD^original to ACE2” value (“inhibition of binding … to ACE2” below) was “strong inhibitory effects”. The “cytopathic effects in virus-infected cells, virus exposed to drug prior to infection” value in data set [2] is reported as “significantly inhibited”. Besides, in data set [3], the “interleukin-6 levels in lung lavage” value is listed as “lower than control”, the lung weights result is recorded as “lower than in control groups”, the “lymphocytes in BAL fluid” value is listed as “decreases” and the “neutrophils in BAL fluid” value was “decreases”. For the same compound, in data set [3], the “total leukocyte counts in the bronchoalveolar lavage (BAL) fluid” value is reported as “lower than control”. Also, in data set [4], the “pKa (thiol group)” value was 8.2.

On to `O=S(=O)(O)CCS` [MESNA, 2-Mercaptoethane sulfonate, sodium salt], for which, in data set [1], the “binding of RBD^original to ACE2 at one and two hours post exposure and wash” value is reported as “binding inhibition was retained for two hours after drug removal”; the “inhibition of binding … to ACE2” value was “strong inhibitory effects”. Further, the “antiviral efficacy in vitro compared to NAC” value in data set [5] is listed as “superior antiviral efficacy in vitro”.

Regarding `OC1C(O)[C@H](O)C(CS)O[C@@H]1O[C@H]1OC(CS)[C@@H](O)C(O)C1O` (stereo partly drawn) [MUC, 6,6′-dithiotrehalose], in data set [6], the “inhibition of binding of ACE2 to SARS-2-S” value was “inhibited binding of ACE2 to SARS-2-S”, the “persistence of binding inhibition after drug is washed out” value was “binding inhibition persists following drug contact” and the “potency in inhibiting ACE2 binding compared to NAC” value was “stronger potency”. Further, in data set [7], the “effectiveness for inhibiting viral entry compared to NAC” value is “more effective than NAC”, the “inhibition of VSV-S cellular entry” value was “inhibited VSV-S cellular entry” and the “inhibition of VSV-S entry” value was “All three concentrations of MUC resulted in potent inhibition of VSV-S entry”.

As for `OC1C(O)[C@H](O)C(CS)O[C@@H]1O[C@@H]1OC(CS)[C@@H](O)C(O)C1O` (stereo partly drawn) [MUC-031, 6,6′-dithiotrehalose], the “average mass median aerodynamic diameter (MMAD) of the exposure atmosphere” value in data set [8] worked out at 2.60 μm.

As for `CC(=O)N[C@@H](CS)C(=O)O` [NAC, N-acetyl-L-cysteine], in data set [6], the “inhibition of binding of ACE2 to SARS-2-S” value is listed as “inhibited binding of ACE2 to SARS-2-S”. Further, in data set [7], the “inhibition of VSV-S cellular entry” value is listed as “inhibited VSV-S cellular entry”; the “inhibition of VSV-S entry” value was “only 5 and 25 mM of NAC resulted in significant cell entry inhibition”.

On to `NCCCNCCS` [WR-1065], for which, in data set [1], the “binding of RBD^original to ACE2 at one and two hours post exposure and wash” value is reported as “binding inhibition was retained for two hours after drug removal”; the “inhibition of binding … to ACE2” value is reported as “strong inhibitory effects”.

`NCCCNCCSP(=O)(O)O` [amifostine, Amifostine]: in data set [5], the “pseudovirus cell entry after pretreatment of SARS-2-S pseudovirus with drug” value is listed as “did not inhibit viral cell entry”.

Regarding `N[C@@H](CSCC(=O)O)C(=O)O` [carbocysteine, Carbocysteine], in data set [5], the “pseudovirus cell entry after pretreatment of SARS-2-S pseudovirus with drug” value is recorded as “did not inhibit viral cell entry”. Moreover, the “cytopathic effects in virus-infected cells, virus exposed to drug prior to infection” value in data set [2] is given as “significantly inhibited”.
